# Activity calls are given as the source filed them. The rule behind the calls is not given here. Peptide text beside a SMILES is read from it. * marks the point of attachment. Npys = O=[N+]([O-])c1cccnc1S*
# Columns and labels:
# [1] = test system: COS-7; assay: Binding affinity to rat Galpha-fused ORL1 receptor expressed in african green monkey COS7 cells at 100 uM after 90 mins; type: cell-based
# [2] = Binding affinity to rat Galpha-fused ORL1 receptor expressed in african green monkey COS7 cells after 90 mins; type: cell-based; settings: cos-7
# [3] = species on record: Rattus norvegicus; assay: Agonist activity at rat Galpha-fused ORL1 receptor at 10 uM by [35S]GTPgammaS binding assay relative to nociceptin; type: functional
# [4] = test system: COS-7; assay: Displacement of [3H]nociceptin from rat Galpha-fused ORL1 receptor expressed in african green monkey COS7 cells preincubated with 100 uM N-ethylmaleimide for 90 mins measured after 90 mins; type: cell-based
# [5] = Displacement of [3H]nociceptin from rat Galpha-fused ORL1 receptor expressed in african green monkey COS7 cells; type: cell-based; settings: cos-7
# [6] = species on record: Rattus norvegicus; assay: Antagonist activity at rat Galpha-fused ORL1 receptor assessed as reduction of receptor agonist nociceptin-induced [35S]GTPgammaS binding at 10 uM; type: functional
# [7] = test system: COS-7; assay: Binding affinity to rat Galpha-fused ORL1 receptor expressed in african green monkey COS7 cells at 5 uM after 90 mins; type: cell-based
# [8] = test system: COS-7; assay: Displacement of [3H]nociceptin from rat Galpha-fused ORL1 receptor expressed in african green monkey COS7 cells preincubated with 5 uM Cys(Npys)-RYYRIK-NH2 for 90 mins measured after 90 mins; type: cell-based
# [9] = test system: COS-7; assay: Ratio of NEM EC50 to compound EC50 for binding affinity to rat Galpha-fused ORL1 receptor expressed in african green monkey COS7 cells; type: cell-based
# [10] = species on record: Rattus norvegicus; assay: Agonist activity at rat Galpha-fused ORL1 receptor by [35S]GTPgammaS binding assay relative to nociceptin; type: functional
SMILES,Activity [1] [%],EC50 [2] [µM],Activity [3] [%],Activity [4],IC50 [5] [µM],Activity [6],Activity [7] [%],Activity [8],Ratio EC50 [9],Activity [10]
CCN1C(=O)C=CC1=O [N-ETHYLMALEIMIDE],65,43.7,,,,,,,,
CC[C@H](C)[C@H](NC(=O)[C@H](CCCN=C(N)N)NC(=O)[C@H](Cc1ccc(O)cc1)NC(=O)[C@H](Cc1ccc(O)cc1)NC(=O)[C@H](CCCN=C(N)N)NC(C)=O)C(=O)N[C@@H](CCCCN)C(N)=O,,,60,Active,,,,,,
CC[C@H](C)[C@H](NC(=O)[C@H](CCCNC(=N)N)NC(=O)[C@H](Cc1ccc(O)cc1)NC(=O)[C@H](Cc1ccc(O)cc1)NC(=O)[C@H](CCCNC(=N)N)NC(=O)[C@@H](N)CSSc1ncccc1[N+](=O)[O-])C(=O)N[C@@H](CCCCN)C(N)=O (H-C(Npys)RYYRIK-NH2),,1.9,5,,0.133,Active,60,Active,23,inactive
CC(C)C[C@H](NC(=O)[C@H](CCCCN)NC(=O)[C@H](CCCNC(=N)N)NC(=O)[C@H](C)NC(=O)[C@H](CO)NC(=O)[C@H](CCCCN)NC(=O)[C@H](CCCNC(=N)N)NC(=O)[C@H](C)NC(=O)CNC(=O)[C@@H](NC(=O)[C@H](Cc1ccccc1)NC(=O)CNC(=O)CNC(=O)[C@@H](N)Cc1ccccc1)[C@@H](C)O)C(=O)N[C@@H](C)C(=O)N[C@@H](CC(N)=O)C(=O)N[C@@H](CCC(N)=O)C(=O)O [NOCICEPTIN],,,,Active,0.00052,,,,,
